Test results: ChEMBL document CHEMBL1201862, “PubChem BioAssay data set” (2004)
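Method: 48-hour compound exposure of cells in 96-well plates, five concentrations, linear interpolation of endpoints. GI50 = concentration required for 50% inhibition of growth.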 Active and inactive are the calls of the source. Rule as the data show it: active = GI50 up to about 1.1 µM and inactive = higher. Peptide text beside a SMILES is read from it. * marks the point of attachment. OSu = O=C1CCC(=O)N1O*

What was measured:
Assay in all cases: inhibition of tumour cell growth, NCI panel, 48 h
[1] = test system: NCI-H460
[2] = test system: NCI-H226
[3] = test system: SF-539
[4] = test system: KM12
[5] = test system: SK-OV-3
[6] = test system: UACC-257
[7] = test system: RPMI-8226
[8] = test system: NCI-H23
[9] = test system: LOX IMVI
[10] = test system: SF-268
[11] = test system: Malme-3M
[12] = test system: UO-31
[13] = test system: HCC 2998
[14] = test system: CAKI-1
[15] = test system: HOP-62
[16] = test system: HL-60
[17] = test system: IGROV-1
[18] = test system: NCI-H522
[19] = test system: DU-145
[20] = test system: MDA-N

| Structure (SMILES) | GI50 [1] | GI50 [2] | GI50 [3] | GI50 [4] | GI50 [5] | GI50 [6] | GI50 [7] | GI50 [8] | GI50 [9] | GI50 [10] | GI50 [11] | GI50 [12] | GI50 [13] | GI50 [14] | GI50 [15] | GI50 [16] | GI50 [17] | GI50 [18] | GI50 [19] | GI50 [20] |
| --- | --- | --- | --- | --- | --- | --- | --- | --- | --- | --- | --- | --- | --- | --- | --- | --- | --- | --- | --- | --- |
| O=C1c2cccc3cc([N+](=O)[O-])cc(c23)C(=O)N1NC1=NCCN1 | > 100 µM (inactive) | > 100 µM (inactive) | > 100 µM (inactive) | > 100 µM (inactive) | > 100 µM (inactive) | > 100 µM (inactive) | > 100 µM (inactive) | > 100 µM (inactive) | > 100 µM (inactive) | > 100 µM (inactive) | > 100 µM (inactive) | > 100 µM (inactive) | > 100 µM (inactive) | > 100 µM (inactive) | > 100 µM (inactive) | > 100 µM (inactive) | > 100 µM (inactive) | > 100 µM (inactive) |  |  |
| C=CCOCCCCC(C(C)=O)C(=O)OC (stereo not given) | > 100 µM (inactive) | > 100 µM (inactive) | > 100 µM (inactive) | > 100 µM (inactive) | > 100 µM (inactive) | > 100 µM (inactive) | > 100 µM (inactive) | > 100 µM (inactive) | > 100 µM (inactive) | > 100 µM (inactive) | > 100 µM (inactive) | > 100 µM (inactive) | > 100 µM (inactive) | > 100 µM (inactive) |  | > 100 µM (inactive) | > 100 µM (inactive) | > 100 µM (inactive) | > 100 µM (inactive) |  |
| O=C1c2ccccc2C(=O)c2sc(Nc3ccc(Cl)c(Cl)c3)nc21 | 12.5 µM (inactive) | 1.48 µM (inactive) | 4.38 µM (inactive) | 7.83 µM (inactive) | 18 µM (inactive) | 4.01 µM (inactive) | 2.02 µM (inactive) | 2.31 µM (inactive) | 2.17 µM (inactive) | 4.97 µM (inactive) | 4.16 µM (inactive) | 2.12 µM (inactive) | 15.3 µM (inactive) | 3.07 µM (inactive) | 7.38 µM (inactive) | 0.256 µM (active) | 3.82 µM (inactive) | 2.07 µM (inactive) | 18.8 µM (inactive) |  |
| COC(=O)c1cc2c(nc1C)-c1ccccc1OS2(=O)=O | > 100 µM (inactive) | > 100 µM (inactive) | 54.5 µM (inactive) | > 100 µM (inactive) | > 100 µM (inactive) | > 100 µM (inactive) | > 100 µM (inactive) | > 100 µM (inactive) | > 100 µM (inactive) | 45.5 µM (inactive) | > 100 µM (inactive) | > 100 µM (inactive) | > 100 µM (inactive) | > 100 µM (inactive) | 27.5 µM (inactive) | > 100 µM (inactive) | > 100 µM (inactive) | > 100 µM (inactive) |  |  |
| OCC1C(O)C(O)[C@@H]2SCCN12 (stereo not given in full) | > 100 µM (inactive) | > 100 µM (inactive) |  | > 100 µM (inactive) | > 100 µM (inactive) | > 100 µM (inactive) | > 100 µM (inactive) | > 100 µM (inactive) | > 100 µM (inactive) | > 100 µM (inactive) | > 100 µM (inactive) | > 100 µM (inactive) | > 100 µM (inactive) | > 100 µM (inactive) | > 100 µM (inactive) | > 100 µM (inactive) | > 100 µM (inactive) | > 100 µM (inactive) | > 100 µM (inactive) |  |
| CSc1nc2c(c(O)c(C)c(=O)n2C2OC(COC(C)=O)C(OC(C)=O)C(OC(C)=O)C2OC(C)=O)c(=O)n1C (stereo not given) | > 100 µM (inactive) | > 100 µM (inactive) | > 100 µM (inactive) | > 100 µM (inactive) | > 100 µM (inactive) | > 100 µM (inactive) | < 0.01 µM (active) | > 100 µM (inactive) | > 100 µM (inactive) | > 100 µM (inactive) | > 100 µM (inactive) | > 77.4 µM (inactive) | > 100 µM (inactive) | > 100 µM (inactive) | > 100 µM (inactive) | > 100 µM (inactive) | > 100 µM (inactive) | > 100 µM (inactive) |  |  |
| CCOC(=O)C1=C(C)N(CC(C)C)C2(O)C(OC)CC(=O)C3C(=O)N(c4ccccc4)C(=O)C132 (stereo not given) | 36.5 µM (inactive) | 26.1 µM (inactive) | 49.4 µM (inactive) | 25.9 µM (inactive) |  | 37.4 µM (inactive) | 33 µM (inactive) | 35 µM (inactive) | 31.3 µM (inactive) | 60.1 µM (inactive) | 31.5 µM (inactive) | 20 µM (inactive) | 24.8 µM (inactive) | 37 µM (inactive) | 68.7 µM (inactive) | 25 µM (inactive) | 20.1 µM (inactive) | 16.5 µM (inactive) | 52 µM (inactive) |  |
| O=S(=O)(CCn1c(Sc2ccccc2)c(Sc2ccccc2)c2ccccc21)c1ccccc1 | > 100 µM (inactive) | > 100 µM (inactive) | > 100 µM (inactive) | > 100 µM (inactive) | > 100 µM (inactive) |  | > 100 µM (inactive) | > 100 µM (inactive) | > 100 µM (inactive) | > 100 µM (inactive) | > 100 µM (inactive) | > 100 µM (inactive) | > 100 µM (inactive) | 55.8 µM (inactive) | > 100 µM (inactive) | > 100 µM (inactive) | > 100 µM (inactive) | > 100 µM (inactive) | > 100 µM (inactive) |  |
| O=[N+]([O-])c1c(/C=N/c2ccccc2)oc(-c2ccc3c(c2)OCO3)c1-c1ccc2c(c1)OCO2 | > 100 µM (inactive) | 48.8 µM (inactive) | > 100 µM (inactive) | > 100 µM (inactive) | 44.9 µM (inactive) | > 100 µM (inactive) | > 100 µM (inactive) | > 100 µM (inactive) | > 100 µM (inactive) | > 100 µM (inactive) | > 100 µM (inactive) | 9.29 µM (inactive) | > 100 µM (inactive) | > 100 µM (inactive) | > 100 µM (inactive) | > 100 µM (inactive) | > 100 µM (inactive) | > 100 µM (inactive) |  |  |
| CN1CCC(=O)/C(=C/c2ccccc2)C1 | 16.3 µM (inactive) | 16.8 µM (inactive) | 17.7 µM (inactive) | 2.23 µM (inactive) | 20.2 µM (inactive) | 14.7 µM (inactive) | 2.86 µM (inactive) | 17.5 µM (inactive) | 5.58 µM (inactive) | 17.5 µM (inactive) | 19.5 µM (inactive) | 17.9 µM (inactive) | 10.9 µM (inactive) | 17.9 µM (inactive) | 20.6 µM (inactive) | 9.35 µM (inactive) | 16 µM (inactive) | 8.95 µM (inactive) |  |  |
| O=C(O)COc1ccc(C(=O)/C(SS/C(C(=O)c2ccc(OCC(=O)O)c(Cl)c2Cl)=C2\C=C(c3ccc(Cl)cc3)SS2)=C2/C=C(c3ccc(Cl)cc3)SS2)c(Cl)c1Cl | 19.1 µM (inactive) | 5.66 µM (inactive) | 5.9 µM (inactive) | 16 µM (inactive) | 56.1 µM (inactive) | 78.2 µM (inactive) | 22.3 µM (inactive) | 9.23 µM (inactive) | 3.93 µM (inactive) | 11.2 µM (inactive) | 33.7 µM (inactive) | 4.89 µM (inactive) | 12.4 µM (inactive) | 28.1 µM (inactive) | 39.8 µM (inactive) | 0.252 µM (active) | 13.3 µM (inactive) | 2.18 µM (inactive) |  |  |
| CN(/N=C/C=N/N(C)C1=NCCCN1)C1=NCCCN1 | > 100 µM (inactive) | > 100 µM (inactive) | > 100 µM (inactive) | > 100 µM (inactive) | > 100 µM (inactive) | > 100 µM (inactive) |  | > 100 µM (inactive) | > 100 µM (inactive) | > 100 µM (inactive) | > 100 µM (inactive) | > 100 µM (inactive) | > 100 µM (inactive) | > 100 µM (inactive) | > 100 µM (inactive) |  | > 100 µM (inactive) | > 100 µM (inactive) |  | > 100 µM (inactive) |
| Cc1ccc(S(=O)(=O)NC(=O)Nc2cccc(S(N)(=O)=O)c2)cc1 | > 100 µM (inactive) | > 100 µM (inactive) | > 100 µM (inactive) | > 100 µM (inactive) | > 100 µM (inactive) |  | > 100 µM (inactive) | > 100 µM (inactive) | > 100 µM (inactive) | > 100 µM (inactive) | > 100 µM (inactive) | > 100 µM (inactive) | > 100 µM (inactive) | > 100 µM (inactive) | > 100 µM (inactive) | > 100 µM (inactive) | > 100 µM (inactive) | > 100 µM (inactive) | > 100 µM (inactive) |  |
| CCN(CC)CCOc1ccc(C(=C2CCCCC2)c2ccc(OCCN(CC)CC)cc2)cc1 | 1.47 µM (inactive) | 2.15 µM (inactive) | 1.55 µM (inactive) | 1.27 µM (inactive) | 1.87 µM (inactive) | 1.87 µM (inactive) | 0.7 µM (active) | 1.86 µM (inactive) | 1.23 µM (inactive) | 1.68 µM (inactive) | 1.72 µM (inactive) | 1.59 µM (inactive) | 1.3 µM (inactive) | 1.96 µM (inactive) | 1.77 µM (inactive) | 0.299 µM (active) | 1.71 µM (inactive) | 1.76 µM (inactive) |  |  |
| NCCCCC(NC(=O)C(N)Cc1ccc(O)cc1)C(=O)NC(Cc1ccc(O)cc1)C(=O)NC(CCCCN)C(=O)ON1C(=O)CCC1=O (stereo not given) (H-YKYK-OSu; configuration not given here) | > 100 µM (inactive) | > 100 µM (inactive) |  | > 100 µM (inactive) |  | > 100 µM (inactive) | > 100 µM (inactive) | > 100 µM (inactive) |  |  | > 100 µM (inactive) | > 100 µM (inactive) | > 100 µM (inactive) |  | > 100 µM (inactive) | > 100 µM (inactive) | > 100 µM (inactive) |  |  | > 100 µM (inactive) |
